Entries after “also recorded” stand apart in the source; their conditions may differ. Like-named read-outs stand apart in the source and are kept apart here.
How the values were obtained:
Ras/MAPK = conditions: cited from earlier work; for IL-6 induced activation of Ras/MAPK: refs [20, 22]
AKT = conditions: PTEN mutated OPM2 MM cells, ref [30]; cited from earlier work
Cyclin D2 = conditions: two HMCL, ref [22]; cited from earlier work
[1] = tested on: CD38+CD45− primary MM cells; assay: Apoptosis (Apo 2.7) of ex-vivo primary patient MM cells, single agent and combination; format: cell-based, human; conditions: 24 hours, Calcusyn
Text: Primary MM samples were obtained from Bone Marrow Aspirates from relapsed and refractory MM patients following written informed consent with approval from the Alfred Hospital Research and Ethics Committee and isolated and treated as previously described. Briefly, bone marrow mononuclear cells (BMMC) were isolated with Ficoll-Paque Plus (Amersham Biosciences), washed in PBS and red blood cells were lysed with NH4Cl solution (8.29 g/L ammonium chloride, 0.037 g/L EDTA, 1 g/L potassium bicarbonate). Cells were then washed again in PBS and quantitated by haemocytometer. BMMC samples were then cultured in complete RPMI-1640 media (as above for HMCL) for 24 hours. Subsequently the BMMC were plated at 5×10^5 cells/ml and were treated with CYT387 (5-50 μM) alone or (dependant on cell numbers) in combination with bortezoniib (5-40 nM) or melphalan (50-200 μM) for 24 and/or 48 hours. Drug-induced MM specific cell apoptosis was then compared to untreated and vehicle controls by staining for CD45 FITC (BD), CD38 PerCP-Cy5.5 (BD) and Apo 2.7 PE (Immunotech) to determine apoptosis in CD45−CD38+ MM cells. Samples were subsequently analyzed by FACS. Primary bone marrow stromal cells (BMSC) were also collected from patient BMMC, cells that adhered to the flask after an initial 24 hour culture were cultured with continued selection for adherent cells over several passages. […]

p-ERK1/2 (pT202/pY204) = assay: IL-6 and IGF-1 induced p-ERK, intracellular FACS, U266; format: cell-based, human; conditions: 2 μM CYT387 cotreatment, 15 minutes
Protocol: (§1) Activation of the JAK/STAT, PI3K/AKT and Ras/MAPK pathways was investigated using intracellular flow cytometry to measure the phosphorylation of STAT3 at tyrosine 705 (p-STAT3), AKT at serine 473 (p-AKT) and ERK1/2 at threonine 202 and tyrosine 204 (p-ERK). HMCL were stimulated alone with 10 ng/ml IL-6±[…] IGF-1 or stimulated in CC with HS5 stromal cells or primary BMSC with or without CYT387 treatment. For CC HS5 and primary BMSC were seeded into a 24 well plate at 2×10^5 cells/ml and allowed to establish for 4 hours, after which HMCL prestained with CD38 or CD138 FITC (BD) were added. MM cells were stimulated alone (10 ng/ml IL-6 or 5 ng/ml IL-6 and 100 ng/ml IGF-1), or in CC (direct CC with stroma or transwell (TW) CC with stroma) with or without either 60 minutes of CYT387 pretreatment or 15 minutes CYT387 co-treatment. After stimulation±treatment, MM cells were harvested and fixed with 2% paraformaldehyde for 10-30 minutes, washed then permeabilised with methanol overnight. Methanol was washed off and the cells were resuspended in p-STAT3 PE (BD), p-AKT PE (BD) or p-ERK (BD) and stained for 45-60 minutes at room temperature. Unbound antibody was washed off and the cells resuspended in 2% FBS PBS and acquired by FACS.

NCI-H929 [2] = assay: Annexin-V/Propidium Iodide FACS apoptosis; format: cell-based; conditions: Homo sapiens, read-out: reduction in viable cells
Protocol: (§2) The viability and proliferation of CYT387 treated HMCL and untreated/vehicle controls were determined using various methods as described previously. Proliferation was measured first using Celltiter 96 AQeous one solution cell proliferation assay MTS reagent (Promega) on a panel of 8 HMCL. Cells were cultured at 2.0×10^5 cell/ml in 100 μl fresh media in 96 well plates for 24, 48 and 72 hours with CYT387 (0.1-5 μM). 20 μl of MTS reagent was added for the final 4 hours of treatment and the plates were read at 490 nm using a Fluostar Optima plate reader (BMG Labtech). The viable cell numbers of a panel of 5 HMCL that were treated with CYT387 with and without IL-6 co-treatment was also measured by trypan blue staining and haemocytometer count. The HMCL NCI-H929, OCI-MY1 and U266 were then selected for further analysis. Apoptosis of CYT387 treated cells was assessed by FACS with Annexin-V and propidium iodide (PI) staining. HMCLs were treated for 24 or 72 hours with 1 or 5 μM CYT387 then harvested and washed in Annexin Buffer (0.01 HEPES, 0.14 M NaCl, 2.5 mM CaCl2, pH 7.4) and stained with Annexin-V FITC (Biosource) made up in Annexin Buffer for 30 minutes at room temperature. Unbound antibody was then washed off with Atmexin Buffer and cells were resuspended in Annexin Buffer with 62.5 ng/mi PI (Sigma-Aldrich) and analyzed by FACS.

p-AKT (pS473) = assay: IL-6 and IGF-1 induced p-AKT, intracellular FACS, OCI-MY1; format: cell-based, human; conditions: 2 μM CYT387 cotreatment, 15 minutes
Protocol: as §1

p-STAT3 (pY705) [3] = assay: STAT3 phosphorylation in HMCL in coculture with bone marrow stromal cells (HS5 or primary BMSC); format: cell-based, human; conditions: 15 minutes coculture with BMSC (with or without contact), co-treatment with 2 μM CYT387
Protocol: as §1

OCI-MY1 = assay: Viable cell number by haemocytometer; format: cell-based; conditions: Homo sapiens; OCI-MY1, 0.5 μM, after 72 hours; read-out: inhibition of cell proliferation
Protocol: as §2

U266 = assay: Viable cell number by haemocytometer; format: cell-based; conditions: Homo sapiens, U-266; U266, 1 μM, after 72 hours; read-out: inhibition of cell proliferation
Protocol: as §2

NCI-H929 [4] = assay: Viable cell number by haemocytometer; format: cell-based; conditions: Homo sapiens; NCI-H929, 1 μM, after 72 hours; read-out: inhibition of cell proliferation
Protocol: as §2

p-STAT3 (pY705) [5] = assay: IL-6 induced STAT3 phosphorylation in HMCL (intracellular FACS, western blot); format: cell-based, human
Protocol: HMCL were treated with CYT387 (1 or 2 μM) for 60 minutes and then stimulated with 10 ng/ml IL-6 for 15 minutes. Protein lysates of CYT387 treated and untreated HMCL were made with RIPA Buffer (50 mM Tris.HCl pH 7.4, 150 mM NaCl, 1 mM PMSF, 1 mM EDTA, 5 μg/ml Aprotinin, 5 μg/ml Leupeptin, 1% Triton X-100, 1% Sodium deoxycholate and 0.1% SDS). Briefly cells were incubated in RIPA buffer on ice for 30-60 minutes before being centrifuged at 16,100×g for 20 minutes at 4° C. and the supernatant collected. Protein concentration was quantified using DC Protein Assay (Bio-Rad) as per manufacturer's instructions. Subsequently, 100 μg of each protein lysate was separated by 10% SDS-PAGE and blotted onto nitrocellulose (Hybond ECL, Amersham) using the Bio-Rad semi-dry transfer system. Membranes were blocked with 5% skim milk powder 0.1% Tween-20/PBS for 60 minutes then incubated with mouse monoclonal antiphospho-STAT3 (pY705, Santa Cruz), mouse monoclonal anti-STAT3 (Santa Cruz) or mouse monoclonal anti-a-tubulin (Sigma-Aldrich) for 1-2 hours at room temperature or overnight at 4° C. The blots were washed three times for 15 minutes in 0.1% Tween-20/PBS, then incubated with secondary HRP lagged antibody (swine anti-rabbit Ig HRP (Dako) or rabbit anti-mouse Ig HRP (Dako)) for 1-2 hours at room temperature before washing as above. […]

[6] = tested on: NCI-H929, OCI-MY1 and U266; assay: PI FACS dose effect and synergy (Calcusyn) in HMCL; format: cell-based, human; conditions: 24 and 48 hours
Protocol: For the synergy experiments HMCL were treated with CYT387 in combination with bortezomib or melphalan for 24 and 48 hours before being harvested and resuspended in FACS Buffer (0.5% HI FBS in PBS) supplemented with 62.5 ng/ml PI (Sigma-Aldrich). Cells were immediately analysed by FACS. The proportion of PI positive cells was quantitated by subtracting the background death of untreated cells. Single drug treated cells were compared to combination treated cells and synergism was calculated using Calcusyn software (Biosoft).

[7] = tested on: HMCL (NCI-H929, OCI-MY1 and U266); assay: Viable cell number by haemocytometer with and without IL-6; format: cell-based, human; conditions: CYT387 0.5-1 μM, 10 ng/ml IL-6, 72 hours
Protocol: as §2

[8] = tested on: HMCL (NCI-H929, OCI-MY1 and U266); assay: Cell cycle analysis by FACS (PI/RNase); format: cell-based, human
Protocol: (§3) The effect of CYT387 treatment on HMCL cell cycling was measured after 24 and 72 hours. CYT387 (1 or 5 μM) treated and untreated HMCL were harvested, washed in PBS and resuspended in 100 μl PBS. Cells were fixed with 1 ml of cold 70% ethanol while being vortexed. Tubes were stored at −20° C. until analysis. Once all samples were collected tubes were centrifuged at 500×g for 10 minutes, the supernatant was carefully removed and the cells washed in 5 ml PBS. After the final wash cells were resuspended 250-500 μl of PI/RNase staining buffer (BD) and incubated in the dark at room temperature for 15 minutes before being analyzed by FAGS.

NCI-H929 cells = assay: Cell cycle analysis by FACS (PI/RNase); format: cell-based, human; conditions: after 24 and 72 hours treatment
Protocol: as §3

[9] = tested on: HMCL (NCIH929, OCI-MY1 and U266); assay: Annexin-V/Propidium Iodide FACS apoptosis; format: cell-based, human; conditions: Annexin-V/PI; 3 HMCL
Protocol: as §2

[10] = tested on: HMCL (LP-1, NCI-H929, OPM2, RPMI-8226, ANBL-6, OCI-MY1, U266 and XG-1); assay: MTS cell proliferation assay on a panel of 8 HMCL; format: cell-based, human
Protocol: as §2

[11] = CYT387 in combination with bortezomib
[12] = CYT387 in combination with melphalan

## N#C/C(=C/c1ccc(O)c(O)c1)C(=O)NCc1ccccc1 [AG490]
Ras/MAPK; in the hands of others, ref [31]
  IL-6 induced Ras/MAPK activation: no decrease
Ras/MAPK
  IL-6 induced activation of Ras/MAPK: reduce IL-6 induced activation of Ras/MAPK
AKT
  AKT activation: could also abrogate AKT activation

## Cc1cc(Nc2nc(N[C@@H](C)c3ncc(F)cn3)ncc2Cl)n[nH]1 [AZD1480]
Ras/MAPK
  IL-6 induced activation of Ras/MAPK: reduce IL-6 induced activation of Ras/MAPK
Cyclin D2
  Cyclin D2: inhibited Cyclin D2

## N#CCNC(=O)c1ccc(-c2ccnc(Nc3ccc(N4CCOCC4)cc3)n2)cc1 [CYT387, N-(cyanomethyl)-4-[2-[[4-(4-morpholinyl)phenyl]amino]-4-pyrimidinyl]-benzamide]
[1]; [11]
  synergy with bortezomib in primary patient cells: synergy was also observed with bortezomib in some patients/doses
[1]; [12]
  synergy with melphalan in primary patient cells: synergize with melphalan in ⅔ patients
p-ERK1/2 (pT202/pY204)
  IL-6 and IGF-1 induced p-ERK: significantly inhibited; also recorded: significant reduction
NCI-H929 [2]; NCI-H929, 5 μM CYT387, 24 hours
  cytotoxicity at 5 µM: 21%
NCI-H929 [2]; NCI-H929, 5 μM CYT387, 72 hours
  cytotoxicity at 5 µM: 52%
p-AKT (pS473)
  p-AKT activation after IL-6 and IGF-1 stimulation: significantly reduced; also recorded: dramatic reduction
p-STAT3 (pY705) [3]
  amount of p-STAT3 in the HMCL: dramatically reduced the amount of p-STAT3
OCI-MY1
  inhibition at 0.5 µM: 50%
U266
  inhibition at 1 µM: 44%
NCI-H929 [4]
  inhibition at 1 µM: 50%
p-STAT3 (pY705) [5]; CYT387 0.5-2 μM for 1 hour, then IL-6 for 15 minutes, NCI-H929, OCI-MY1 and U266, FACS and western blotting
  phosphorylation of STAT3 in IL-6 stimulated samples: inhibited the phosphorylation of STAT3
p-STAT3 (pY705) [5]; western blot, CYT387 then IL-6 stimulation
  Total STAT3 protein: unaffected
[6]; CYT387 0.5-10 μM
  apoptosis (PI+ cells), dose effect curves: induced apoptosis in 3 HMCL in a time and dose dependent manner
[6]; [11]
  synergy with bortezomib (combination index, Calcusyn): displayed synergism; also recorded: synergistic or nearly additive in 18/24 combinations
[6]; [12]
  synergy with melphalan (combination index, Calcusyn): displayed synergism; also recorded: Synergy is seen
[7]
  proliferation of HMCL in the presence of IL-6: able to reduce the proliferation of HMCL in culture even in the presence of IL-6
[8]; CYT387 1-5 μM, NCI-H929, OCI-MY1 and U266
  cells in the G2/M phase of the cell cycle: marked accumulation of cells in the G2/M phase
[8]; CYT387 treated samples
  polyploid population: additional polyploid population was found
NCI-H929 cells
  increase in cells in G2/M compared to untreated or vehicle treated control: more than a two fold increase
[9]
  proportion of apoptotic cells: increased proportion of apoptotic cells was detected in all 3 HMCL
[10]; 72 hours
  most sensitive HMCL to CYT387 treatment (MTS): NCI-H929 and XG-1 were the most sensitive
[10]; CYT387 0.1-5 μM, 24, 48 and 72 hours, 8 HMCL
  cell proliferation response by MTS assay: Six of 8 HMCL had a time and dose dependent response

Source: patent US20140171433A1, “MULTIPLE MYELOMA TREATMENT” (YM Biosciences Australia Pty Ltd, priority 2011, published 2014)
